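The compound was tested at five concentrations on cells cultured in 96-well plates, with a 48-hour exposure period. TGI denotes the concentration required for complete inhibition of growth.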
How the values were obtained:
Assay in all cases: inhibition of tumour cell growth, NCI panel, 48 h
[1] = system: SNB-19 CNS
[2] = system: SK-MEL-2 melanoma
[3] = system: SN12C renal
[4] = system: OVCAR-4 ovarian
[5] = system: SNB-78 CNS
[6] = system: TK-10 renal
[7] = system: EKVX NSCLC
[8] = system: KM12 colon
[9] = system: UACC-257 melanoma
[10] = system: HCC-2998 colon
[11] = system: NCI-H226 lung
[12] = system: HL-60(TB) leukemia
[13] = system: OVCAR-8 ovarian
[14] = system: SR leukemia
[15] = system: UO-31 renal
[16] = system: K-562 leukemia
[17] = system: NCI-H460 lung
[18] = system: OVCAR-3 ovarian
[19] = system: SF-295 CNS
[20] = system: SK-OV-3 ovarian
[21] = system: HCT-116 colon
[22] = system: DMS 273 small cell lung
[23] = system: DLD-1 colon
[24] = system: OVCAR-5 ovarian
[25] = system: SNB-75 CNS
[26] = system: CAKI-1 renal
[27] = system: SK-MEL-28 melanoma
[28] = system: ACHN renal
[29] = system: XF 498 CNS
[30] = system: HT29 colon
[31] = system: HOP-92 NSCLC
[32] = system: NCI-H522 lung
[33] = system: HOP-62 NSCLC
[34] = system: SK-MEL-5 melanoma
[35] = system: A498 renal
[36] = system: SF-268 CNS
[37] = system: COLO 205 colon
[38] = system: MALME-3M melanoma
[39] = system: NCI-H23 lung
[40] = system: M14 melanoma
[41] = system: LOX IMVI melanoma
[42] = system: IGROV1 ovarian
[43] = system: HCT-15 colon
[44] = system: SF-539 CNS
[45] = system: CCRF-CEM leukemia
[46] = system: LXFL 529 NSCLC
[47] = system: M19-MEL melanoma
[48] = system: 786-0 renal
[49] = system: DMS 114 small cell lung
[50] = system: A549 NSCLC
[51] = system: MOLT-4 leukemia
[52] = system: SW-620 colon
[53] = system: KM20L2 colon
[54] = system: RPMI-8226 leukemia
[55] = system: U251 CNS
[56] = system: RXF 393 renal
[57] = system: HOP-18 NSCLC
[58] = system: UACC-62 melanoma
[59] = system: RXF-631 renal

C[n+]1ccc(-c2cc[n+](C)cc2)cc1
TGI [1]: > 100 µM | TGI [2]: 13.1 µM | TGI [3]: 30.3 µM | TGI [4]: 3.21 µM | TGI [5]: > 58.4 µM | TGI [6]: > 100 µM | TGI [7]: > 60.2 µM | TGI [8]: > 92.4 µM | TGI [9]: 3.09 µM | TGI [10]: 97.8 µM | TGI [11]: 43.1 µM | TGI [12]: 24.8 µM | TGI [13]: > 100 µM | TGI [14]: > 31.6 µM | TGI [15]: > 100 µM | TGI [16]: > 100 µM | TGI [17]: > 33.5 µM | TGI [18]: > 46.6 µM | TGI [19]: > 37.6 µM | TGI [20]: > 100 µM | TGI [21]: > 44.5 µM | TGI [22]: > 38.5 µM | TGI [23]: > 47.2 µM | TGI [24]: 37.9 µM | TGI [25]: 99.8 µM | TGI [26]: > 100 µM | TGI [27]: > 100 µM | TGI [28]: > 100 µM | TGI [29]: 17 µM | TGI [30]: > 81.9 µM | TGI [31]: > 63.6 µM | TGI [32]: > 34.2 µM | TGI [33]: 66.5 µM | TGI [34]: > 35.6 µM | TGI [35]: > 50.3 µM | TGI [36]: > 100 µM | TGI [37]: > 38.3 µM | TGI [38]: 0.981 µM | TGI [39]: > 29.3 µM | TGI [40]: > 35.9 µM | TGI [41]: > 48.1 µM | TGI [42]: > 38.1 µM | TGI [43]: > 52.3 µM | TGI [44]: > 46.4 µM | TGI [45]: > 100 µM | TGI [46]: > 53.3 µM | TGI [47]: > 21.6 µM | TGI [48]: > 100 µM | TGI [49]: > 24.7 µM | TGI [50]: > 95 µM | TGI [51]: > 100 µM | TGI [52]: > 100 µM | TGI [53]: > 100 µM | TGI [54]: > 100 µM | TGI [55]: > 70.9 µM | TGI [56]: 3.93 µM | TGI [57]: > 100 µM

CCC1(C(=O)OC)CCc2c(OC)ccc(OC)c2C1=O (stereo unspecified)
TGI [1]: > 100 µM | TGI [2]: > 100 µM | TGI [3]: > 100 µM | TGI [4]: > 100 µM | TGI [5]: > 100 µM | TGI [6]: > 100 µM | TGI [7]: > 100 µM | TGI [8]: > 100 µM | TGI [9]: > 100 µM | TGI [10]: > 100 µM | TGI [12]: > 100 µM | TGI [13]: > 100 µM | TGI [15]: > 100 µM | TGI [16]: > 100 µM | TGI [17]: > 100 µM | TGI [58]: > 100 µM | TGI [18]: > 100 µM | TGI [19]: > 100 µM | TGI [20]: > 100 µM | TGI [21]: > 100 µM | TGI [22]: > 100 µM | TGI [23]: > 100 µM | TGI [24]: > 100 µM | TGI [26]: > 100 µM | TGI [59]: > 100 µM | TGI [27]: > 100 µM | TGI [28]: > 100 µM | TGI [29]: > 100 µM | TGI [30]: > 100 µM | TGI [32]: > 100 µM | TGI [33]: > 100 µM | TGI [34]: > 100 µM | TGI [35]: > 100 µM | TGI [36]: > 100 µM | TGI [37]: > 100 µM | TGI [38]: > 100 µM | TGI [39]: > 100 µM | TGI [40]: > 100 µM | TGI [41]: > 100 µM | TGI [42]: > 100 µM | TGI [43]: > 100 µM | TGI [44]: > 100 µM | TGI [45]: > 100 µM | TGI [46]: > 100 µM | TGI [47]: > 100 µM | TGI [48]: > 100 µM | TGI [49]: > 100 µM | TGI [50]: > 100 µM | TGI [51]: > 100 µM | TGI [52]: > 100 µM | TGI [53]: > 100 µM | TGI [54]: > 100 µM | TGI [55]: > 100 µM | TGI [57]: > 100 µM

CCc1ccc(Nc2cc(=O)[nH]c(=S)n2C)cc1
TGI [1]: > 100 µM | TGI [2]: > 100 µM | TGI [3]: > 100 µM | TGI [4]: > 100 µM | TGI [5]: > 100 µM | TGI [6]: > 100 µM | TGI [7]: > 100 µM | TGI [8]: > 100 µM | TGI [9]: > 100 µM | TGI [11]: > 100 µM | TGI [12]: > 100 µM | TGI [13]: > 100 µM | TGI [14]: > 100 µM | TGI [15]: > 100 µM | TGI [16]: > 100 µM | TGI [17]: > 100 µM | TGI [58]: > 100 µM | TGI [18]: > 100 µM | TGI [19]: > 100 µM | TGI [20]: > 100 µM | TGI [21]: > 100 µM | TGI [22]: > 100 µM | TGI [23]: > 100 µM | TGI [24]: > 100 µM | TGI [25]: > 100 µM | TGI [26]: > 100 µM | TGI [29]: > 100 µM | TGI [30]: > 100 µM | TGI [31]: > 100 µM | TGI [32]: > 100 µM | TGI [33]: > 100 µM | TGI [34]: > 100 µM | TGI [35]: > 100 µM | TGI [36]: > 100 µM | TGI [37]: > 100 µM | TGI [38]: > 100 µM | TGI [39]: > 100 µM | TGI [40]: > 100 µM | TGI [41]: > 100 µM | TGI [42]: > 100 µM | TGI [43]: > 100 µM | TGI [44]: > 100 µM | TGI [45]: > 100 µM | TGI [46]: > 100 µM | TGI [47]: > 100 µM | TGI [48]: > 100 µM | TGI [49]: > 100 µM | TGI [50]: > 100 µM | TGI [51]: > 100 µM | TGI [52]: > 100 µM | TGI [53]: > 100 µM | TGI [54]: > 100 µM | TGI [55]: > 100 µM | TGI [56]: > 100 µM | TGI [57]: > 100 µM
